Assay results taken from US20240099214A1, “PLANT DEFENCE GENE EXPRESSION” (UPL Corporation Limited, priority 2021, published 2024).

What was measured:
[1] = tested on: 1-aminocryclopropane-1-carboxylate oxidase-like protein (gene 6, Solyc11g072100.1); experiment: qRT-PCR expression of gene 6 in tomato leaves; type: in vivo, Tomato ecotype corbarino; set-up: key: relative expression normalized to a-tubulin housekeeping gene
Method: (§1) Tomato ecotype “corbarino” reported to be susceptible to TSWV infection was used in the experiment. Plants were grown in pots in a climatic chamber with a photoperiod of 16/8 hour at 25° C.
(§2) The viral strain (TSWV PV PV-0393) was utilized in the experiment. The virus was mechanically inoculated and propagated on tomato “corbarino”. The inoculum was prepared in an ice-cooled mortar grounding 1 gr of infected tomato tissue in 10 ml of Na-phosphate buffer 0.01M. The fresh prepared inoculum was stored in ice before use. Tomato plants at BBCH16 were dusted with Carborundum 600 mesh and selected leaves were rubbed with some droplets of inoculum. After 5 min. plants were sprayed with sterile water to remove the excess of inoculum and preserve the cell turgor.
(§3) Four treatments were compared: i) Mock inoculated; ii) TSWV; iii) 0.25% Laminarin; iv) 0.25% Laminarin+TSWV. In the last treatment the virus was inoculated 24 hrs after the laminarin application.
(§4) Total RNA was extracted from systemic infected tomato leaves by using the Quick-RNA Plant Kit (Zymo Research) following the manufacturer instructions. The extractions were carried out using three plants after 12 h, 24 h, 48 h, 72 h, 7 days after inoculation. Leaves were instantly frozen in liquid nitrogen after cutting to avoid any deterioration of the sample as well as any defense reaction. The RNA concentration was quantified by measuring the absorbance at 260 nm using a Nanodrop 2000 (Thermofisher). The purity of all of the RNA samples was assessed at an absorbance ratio of OD260/280 and OD260/230, while its structural integrity was checked by agarose gel electrophoresis. Only high-quality RNA with OD 260/280 and OD 260/230>2 was used for subsequent steps. Single-stranded cDNA was synthesized from 1 μg of total RNA using an iScript™ Select cDNA Synthesis Kit and random hexamers as primers (Bio-Rad, Milan, Italy), according to the manufacturer's instructions. Three biological replicates were created from the 3 leaves collected to test 15 genes. Alpha tubulin was used as reference gene.
(§5) qPCR reactions were performed with BioRad (Applied Biosystems, Foster City, CA, USA) using SYBR R Green. Each reaction was performed in 20 μl containing 10 μl of 2× Power SYBR Green PCR Master Mix (Life Technologies), 0.2-0.3 μM primers and cDNA samples diluted 1:20. Each qPCR reaction was performed in triplicate. Reactions were run using the cycling parameter described previously (Reid et al., 2006) and the qPCR data were analyzed by the Ct method (Pfaffl, 2001). In order to analyze the qPCR data, a-tubulin gene was used as housekeeping to determine the relative expression level of the other genes analyzed in this work. For the determination of qPCR efficiency of each primer pairs, a standard curve was performed using the following cDNA dilutions: 1:4, 1:16, 1:64; 1:256 and 1:1024. Every measurement was made in triplicate. The corresponding qPCR efficiencies (E) were calculated for every primer pair with the software 7300 System SDS software (Applied Biosystems, Foster City, CA, USA) according to the equation E=(10−1/slope−1)×100 (Rutledge and Stewart, 2008).
(§6) The significance of the differences between the gene expressions levels were compared by one-way ANOVA (p=0.01) and the means were separated by Tukey post-hoc test using SPSS ver.26 ([…]).

Pti6 (gene 15, U89257.1) = experiment: qRT-PCR expression of gene 15 in tomato leaves; type: in vivo, Tomato ecotype corbarino; set-up: key: relative expression normalized to a-tubulin housekeeping gene
Method: as §1, §2, §3, §4, §5, §6

[2] = Gene_15, 12 hr, treatment Laminarin
[3] = Gene_15, 12 hr, treatment Laminarin + virus
[4] = Gene_15, 24 hr, treatment Laminarin
[5] = Gene_15, 24 hr, treatment Laminarin + virus
[6] = Gene_15, 48 hr, treatment Laminarin
[7] = Gene_15, 48 hr, treatment Laminarin + virus
[8] = Gene_15, 72 hr, treatment Laminarin
[9] = Gene_15, 72 hr, treatment Laminarin + virus

## laminarin
[1]; 12 hr, Laminarin alone
  RQ1: 0.9088
  RQ2: 0.971
  RQ3: 0.8924
  RQ mean: 0.9241
[1]; 24 hr, Laminarin + virus
  RQ1: 13.422
  RQ2: 17.528
  RQ3: 12.610
  RQ mean: 14.520
[1]; 24 hr, Laminarin alone
  RQ1: 16.709
  RQ2: 18.603
  RQ3: 0.8182
  RQ mean: 14.498
[1]; 48 hr, Laminarin + virus
  RQ1: 14.823
  RQ2: 17.395
  RQ3: 0.9742
  RQ mean: 13.987
[1]; 48 hr, Laminarin alone
  RQ1: 16.033
  RQ2: 16.927
  RQ3: 10.675
  RQ mean: 14.545
[1]; 72 hr, Laminarin + virus
  RQ1: 26.404
  RQ2: 20.406
  RQ3: 19.154
  RQ mean: 21.988
[1]; 72 hr, Laminarin alone
  RQ1: 27.013
  RQ2: 20.615
  RQ3: 19.604
  RQ mean: 22.410
Pti6 (gene 15, U89257.1); [2]
  RQ1: 10.060
  RQ2: 10.254
  RQ3: 12.879
  RQ mean: 11.065
Pti6 (gene 15, U89257.1); [3]
  RQ1: 12.002
  RQ2: 16.131
  RQ3: 13.764
  RQ mean: 13.966
Pti6 (gene 15, U89257.1); [4]
  RQ1: 13.129
  RQ2: 21.363
  RQ3: 13.388
  RQ mean: 15.960
Pti6 (gene 15, U89257.1); [5]
  RQ1: 15.392
  RQ2: 14.812
  RQ3: 12.195
  RQ mean: 14.133
Pti6 (gene 15, U89257.1); [6]
  RQ1: 32.421
  RQ2: 0.8602
  RQ3: 19.066
  RQ mean: 20.030
Pti6 (gene 15, U89257.1); [7]
  RQ1: 16.304
  RQ2: 17.934
  RQ3: 18.959
  RQ mean: 17.732
Pti6 (gene 15, U89257.1); [8]
  RQ1: 49.281
  RQ2: 36.255
  RQ3: 43.025
  RQ mean: 42.853
Pti6 (gene 15, U89257.1); [9]
  RQ1: 22.660
  RQ2: 30.703
  RQ3: 44.821
  RQ mean: 32.728
